PubChem BioAssay (NCI)
“And” between values parts separate entries of the source, which are not always exact repeats. Equal values may be shown once.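 Compound exposure: 48 hours, 5 concentrations, 96-well plates. At the GI50, growth is halved. TGI is the concentration that stops growth completely.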

What was measured:
Test in all cases: NCI anticancer screen, dose series, 48 h
SK-OV-3 ovarian = test system: SK-OV-3 ovarian
BT-549 breast = test system: BT-549 breast
UACC-257 melanoma = test system: UACC-257 melanoma
UACC-62 melanoma = test system: UACC-62 melanoma
HS 578T breast = test system: HS 578T breast
M14 melanoma = test system: M14 melanoma
NCI-H460 lung = test system: NCI-H460 lung
RXF 393 renal = test system: RXF 393 renal
HT29 colon = test system: HT29 colon
LOX IMVI melanoma = test system: LOX IMVI melanoma

Structure (SMILES)	GI50 (SK-OV-3 ovarian)	TGI (SK-OV-3 ovarian)	GI50 (BT-549 breast)	TGI (BT-549 breast)	GI50 (UACC-257 melanoma)	TGI (UACC-257 melanoma)	GI50 (UACC-62 melanoma)	TGI (UACC-62 melanoma)	GI50 (HS 578T breast)	TGI (HS 578T breast)	GI50 (M14 melanoma)	TGI (M14 melanoma)	GI50 (NCI-H460 lung)	TGI (NCI-H460 lung)	GI50 (RXF 393 renal)	TGI (RXF 393 renal)	GI50 (HT29 colon)	TGI (HT29 colon)	GI50 (LOX IMVI melanoma)	TGI (LOX IMVI melanoma)
O=c1[nH]c2ccccc2n1C1CCN(CCCC(c2ccc(F)cc2)c2ccc(F)cc2)CC1	1.56 µM	3.12 µM and 24.9 µM	1.72 µM and 8.47 µM	3.31 µM and 23.6 µM	1.58 µM and 2.83 µM	3.24 µM and 7.83 µM	1.38 µM and 9.92 µM	2.75 µM and 23.5 µM	1.83 µM and 7.71 µM	4.47 µM and 24.8 µM	1.83 µM	3.72 µM and 8.19 µM	1.75 µM and 4.26 µM	3.4 µM and 12 µM	1.17 µM and 1.93 µM	2.44 µM and 5.8 µM	1.12 µM	2.52 µM and 7.2 µM	1.61 µM and 2.55 µM	3.02 µM and 6.62 µM
Fc1ccc2nc(-c3nc(-c4ccccc4)n4ccccc34)[nH]c2c1	2.4 µM	5.26 µM	2.76 µM	7.61 µM	2.16 µM	4.76 µM	1.96 µM	4.96 µM	3.56 µM	25 µM	3.83 µM	14.1 µM	2.07 µM	5.2 µM	2.99 µM	10.2 µM	3.25 µM	9.15 µM	4.86 µM	20.2 µM
C[C@@H](NC(=O)c1ccc(F)cc1)c1ccc2c(c1)CCN2C(=O)C1CCOCC1	> 100 µM	> 100 µM	> 100 µM	> 100 µM	> 100 µM	> 100 µM	93.5 µM	> 100 µM	> 100 µM	> 100 µM	> 100 µM	> 100 µM	> 100 µM	> 100 µM	> 100 µM	> 100 µM	> 100 µM	> 100 µM	> 100 µM	> 100 µM
O=[N+]([O-])c1cc(Cc2cc([N+](=O)[O-])c3cccnc3c2O)c(O)c2ncccc12	–	37.5 µM	–	> 77.7 µM	–	14.1 µM	–	27.6 µM	–	52.1 µM	–	30.1 µM	–	9.4 µM	–	18 µM	–	> 73.1 µM	–	> 66.2 µM
COc1ccc2c(c1)C(=O)c1c-2c(=O)n(CCCN(C)C)c2cc(OC)c(OC)cc12	5.15 µM	19.5 µM	83.6 µM	> 100 µM	16.9 µM	33 µM	> 100 µM	> 100 µM	16.2 µM	36.7 µM	6.65 µM	21.7 µM	0.273 µM	11.4 µM	11.2 µM	23.6 µM	3.69 µM	19.1 µM	1.6 µM	15.6 µM
CC1CCN(CCOc2ccc(CNc3ccc4nc(CCC5CCCCC5)[nH]c4c3)cc2)CC1	1.81 µM	3.4 µM	1.52 µM	2.91 µM	1.88 µM	3.74 µM	1.9 µM	3.36 µM	1.67 µM	4.06 µM	1.56 µM	3.01 µM	1.72 µM	3.34 µM	1.33 µM	2.84 µM	1.15 µM	2.81 µM	1.67 µM	3.1 µM
C=C1C(=O)O[C@H]2[C@H]1CC/C(COC(=O)NCc1c[nH]c3ccc(F)cc13)=C\CC[C@@]1(C)O[C@@H]21	11.1 µM	23.1 µM	1.15 µM	2.5 µM	1.69 µM	3.29 µM	1.47 µM	2.87 µM	3.36 µM	26.6 µM	1.23 µM	2.73 µM	2.4 µM	6.03 µM	1.53 µM	3 µM	1.07 µM	2.58 µM	0.952 µM	2.28 µM
COc1cc(-c2ncn(/C=C\c3nnco3)n2)cc(C(F)(F)F)c1	0.979 µM	> 100 µM	0.125 µM	14.3 µM	0.368 µM	> 52.5 µM	0.354 µM	13.8 µM	0.488 µM	> 100 µM	0.791 µM	37.2 µM	0.0431 µM	> 100 µM	0.0307 µM	0.198 µM	0.191 µM	50.8 µM	0.0906 µM	2.02 µM
